The subject of one assay is ERK1/2. The assay is described as follows: Western blot of ERK activation in primary LECs. Type of assay: cell-based, human. The note with it: 0.5 μM for 0 to 60 minutes or 0 to 0.5 μM for 30 minutes. As for the experimental part: (§1) Primary LECs were lysed with Triton lysis buffer supplemented with protease inhibitor cocktail and Phos-STOP phosphatase inhibitor cocktail (Roche), and subjected to electrophoresis in 4-15% SDS-PAGE gels (Bio-Rad). Protein blots of the gels were blocked with 0.5×Odyssey® blocking buffer (OBB, Li-COR). For AKT and ERK signaling, blots were incubated with primary antibodies (rabbit anti-ERK1/2, 1:7500, Cell Signaling Technology; mouse anti-phospho-ERK1/2, Thr202/Tyr204, 1:2000, Cell Signaling Technology; mouse anti-AKT1/2/3, 1:2000, Cell Signaling Technology; rabbit anti-phospho-AKT, Ser473, 1:1500, Cell Signaling Technology) overnight at 4° C. Blots were washed with 0.5% Tween-20/PBS three times, and were incubated with appropriate secondary antibodies (donkey anti-rabbit IRDye 680LT and anti-mouse IRDye 800CW, Li-Cor) for 45 min at 25° C. The blots were scanned by an Odyssey® Infrared Imaging System using Image Studio v2.0 software (Li-COR). […] Signals were detected by Odyssey® Infrared Imaging System. […]

For a further assay, the system named is AKT. Put plainly: Western blot of AKT activation in primary LECs. The conditions noted are these: 0.5 μM for 0 to 60 minutes or 0 to 0.5 μM for 30 minutes. Type of assay: cell-based, human. As for the experimental part:
as §1
Background: Immunoblotting shows a protein as a band on a membrane.

The next assay has as its target T1, PDPN (Homo sapiens, UniProt Q86YL7).
T1 construct: Within the whole cell lysate, an anti-PDPN-reactive 43-kDa component was detected; host or cells: primary lymphatic endothelial cells (LECs)
T1 sequence (Q86YL7 23-162): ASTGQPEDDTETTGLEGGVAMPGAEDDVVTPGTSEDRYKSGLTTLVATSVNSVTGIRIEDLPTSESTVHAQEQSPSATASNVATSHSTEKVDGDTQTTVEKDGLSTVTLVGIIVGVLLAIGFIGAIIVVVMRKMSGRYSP
The assay is described as follows: Affinity precipitation assay, PDPN. It is filed as binding. The note with it: galectin-conjugated agarose beads, LEC lysates. As for the experimental part: Five mg of plant lectins (Vector Labs) and galectins were conjugated to 330 mg of Pierce® NHS-activated agarose dry resin in accordance with the manufacturer's instructions (Thermo Scientific). Primary LECs (Lonza) were lysed in Triton lysis buffer (20 mM Tris-HCl, pH 7.4; 150 mM NaCl; 0.5% Triton X-100 with protease inhibitor cocktail). LEC lysates (250 μg in 500 μL lysis buffer supplemented with 10 mM MgCl2) were incubated with 40 μL (50% slurry) of agarose-conjugated lectins (4° C., overnight). Beads were pelleted by centrifugation at 3000 rpm for 1 min. Non-specific binding proteins were removed by washing the beads with Triton lysis buffer once and PBS twice. Supernatants were discarded; bound proteins were eluted by boiling the beads with 20 μL of 2× Laemmli sample buffer for 7 min, and examined by western blotting.
To determine whether PDPN binds to Gal-8 in a carbohydrate-dependent manner, LEC lysates were incubated with Gal-8-conjugated to agarose beads in the presence or absence of 0.1 M of lactose (an inhibiting sugar) or sucrose (a non-inhibiting sugar). Bound proteins were examined with total cell lysates (input) by western blot using an anti-PDPN antibody. To determine specificity of PDPN binding to Gal-8, LEC lysates were also incubated with agarose beads conjugated to Gal-1, Gal-3 and Gal-7. Within the whole cell lysate, an anti-PDPN-reactive 43-kDa component was detected (FIG. 7A).

As to “Gal-8: recombinant galectin-8, tandem-repeat type galectin with two different CRDs”, the “phosphorylation of ERK1/2 (in words)” value in the assay on ERK1/2 was “induced phosphorylation of AKT and ERK1/2 in time- and dose-dependent manner”. For the same substance, the “phosphorylation of AKT (in words)” value with AKT is “induced phosphorylation of AKT and ERK1/2 in time- and dose-dependent manner”. Also, the “binding of PDPN (in words)” value with PDPN is “binds”.

These data come from patent US10226509B2, “Lymphangiogenesis inhibitors for cancer and for graft survival” (TUFTS UNIVERSITY, priority 2014, dated 2019).
